The values that follow are results of earlier work, collected in the CATMoS acute toxicity set (Mansouri et al. 2021).

Values joined by “and” are separate entries in the source; they are usually repeats but may differ in a detail not shown here. Equal entries are not always repeated.

The data set can be described thus: rat acute oral toxicity. Particulars: in vivo.
With `Clc1ccccc1CN1CCc2sccc2C1`, the LD50 was 1780 mg/kg.

As for `CCOP(=S)(OCC)Oc1ccc2c(C)cc(=O)oc2c1`, the 50% lethal dose (LD50) was 14.7 mg/kg. Turning to `Cc1csc2c(Cl)cccc12`, the median lethal dose (LD50) was 300 mg/kg. For `CCOC(=O)C(C)(C)Oc1ccc(Cl)cc1`, the median lethal dose (LD50) is 940 mg/kg. With `CCOP(=S)(OCC)Oc1ccc(N=C=S)cc1`, the LD50 is 251 mg/kg. For `Nc1ccc(F)c(F)c1`, the LD50 is 340 mg/kg. `O=COCC=Cc1ccccc1`: the LD50 is 2900 mg/kg. Turning to `CCC1NC(=O)C2C(Cl)C(Cl)CN2C(=O)C(CO)NC(=O)CC(c2ccccc2)NC(=O)C(CO)NC1=O` (stereo not given), the median lethal dose (LD50) was 5 mg/kg.

For `O=C(NC(=O)c1c(F)cccc1F)Nc1cc(Cl)c(Oc2ncc(C(F)(F)F)cc2Cl)c(Cl)c1`, the LD50 was 445 mg/kg. For `CNC(=O)ON=C1C2CCC(C2)C1(C)[N+](=O)[O-]` (stereo not given), the LD50 is 24 mg/kg. With `NCCCOCCCCOCCCN`, the median lethal dose (LD50) is 3450 mg/kg.

Regarding `CN1CCN(c2c(F)cc3c(=O)c(C(=O)O)cn4c3c2SCC4)CC1`, the median lethal dose (LD50) was 501 mg/kg. As to `CNCCCN1c2ccccc2CCc2ccccc21`, the 50% lethal dose (LD50) is 375 mg/kg and 871 mg/kg.

For `CC1CC(C)(O)CC(C(O)CC2CC(=O)NC(=O)C2)C1=O` (stereo not given), the LD50 is 3 mg/kg. Turning to `CN(C)N=Nc1ccc(Cl)cc1`, the LD50 is 362 mg/kg.

As for `CC(C)C12CCC(C)(CC1)O2`, the LD50 was 3100 mg/kg. In the case of `CC(C)CCCCCCCCCCOCCCN`, the LD50 was 300 mg/kg. Take `CCOC(=O)CC`: the LD50 is 8730 mg/kg. For `CCC(CC(C)CC)=NO` (stereo not given), the LD50 was 3800 mg/kg.

Turning to `OCCI`, the 50% lethal dose (LD50) was 50 mg/kg. On to `CC(C)Cc1ccc(C(C)C(=O)O)cc1` (stereo not given), for which the median lethal dose (LD50) is 636 mg/kg. As to `COP(=S)(OC)SCSc1ccc(Cl)c(Cl)c1`, the 50% lethal dose (LD50) was 220 mg/kg. Consider `O=[N+]([O-])C(Br)(Br)CO`, for which the LD50 was 29.1 mg/kg.

Regarding `CC(=O)Nc1ccc2c(c1)sc1ccccc12`, the LD50 is 1200 mg/kg.

Take `CN(C)CCN`: the LD50 is 1140 mg/kg.

`COC(=O)CCC(Cl)C(C)=O` (stereo not given): the LD50 is 2050 mg/kg. With `CCS(=O)CSP(=S)(OC(C)C)OC(C)C` (stereo not given), the 50% lethal dose (LD50) was 25 mg/kg. As to `CCCCC(=O)OCC(=O)[C@H]1[C@H](C)C[C@H]2[C@@H]3C[C@H](F)C4=CC(=O)C=C[C@]4(C)[C@@]3(F)[C@@H](O)C[C@@]21C`, the LD50 is 3100 mg/kg. In the case of `COc1cc(C[C@H]2c3cc(OC)c(OC)cc3CCN2C)c(Oc2cc3c(cc2OC)-c2c(OC)c(OC)cc4c2[C@H](C3)N(C)CC4)cc1OC`, the median lethal dose (LD50) was 1500 mg/kg. With `CCC(CC)C(=O)OCC(Br)(Br)Br`, the median lethal dose (LD50) was 4000 mg/kg. `Nc1cc(-c2cccs2)no1`: the LD50 was 1850 mg/kg. With `CN(C)C(=O)COC(=O)Cc1ccc(OC(=O)c2ccc(NC(=N)N)cc2)cc1`, the LD50 was 3000 mg/kg. Consider `CC(c1ccccc1)N(C)C` (stereo not given), for which the LD50 is 420 mg/kg. On to `COc1ccc2c(c1)c(CC(=O)Oc1ccccc1C(=O)Oc1ccccc1C(=O)O)c(C)n2C(=O)c1ccc(Cl)cc1`, for which the LD50 was 63 mg/kg. Regarding `ClCCOCCC(OCCCl)OCCCl`, the median lethal dose (LD50) was 710 mg/kg. `O=Cc1cccs1`: the LD50 was 915 mg/kg. Regarding `NS(=O)(=O)c1cc(Cl)c(Cl)c(S(N)(=O)=O)c1`, the LD50 is 10100 mg/kg.

`CC(=C(CCO)SSCC1CCCO1)N(C=O)Cc1cnc(C)nc1N` (stereo not given): the 50% lethal dose (LD50) is 2200 mg/kg. Regarding `C#CCOc1cccc(OC(=O)NC)c1`, the 50% lethal dose (LD50) is 150 mg/kg.

As to `NCCCCCCNCCCCCCN`, the LD50 was 450 mg/kg. As to `c1coc(OCC2CO2)c1` (stereo not given), the LD50 was 1100 mg/kg. For the compound `C=CC(=O)OCC(C)OCC(C)OCC(C)OC(=O)C=C` (stereo not given), the LD50 was 6200 mg/kg. In the case of `N#CCCN1CC=C(c2cccc(C(F)(F)F)c2)CC1`, the LD50 was 515 mg/kg.

As for `O=C(Cl)c1ccc(C(=O)Cl)cc1`, the median lethal dose (LD50) was 2500 mg/kg.

For `CCCCCOC(C[n+]1ccccc1)c1ccc(C2CCCC2)cc1` (stereo not given), the LD50 is 250 mg/kg. Consider `FC(F)(F)c1nc2c(Cl)c(Cl)c(Cl)cc2[nH]1`, for which the median lethal dose (LD50) is 1.52 mg/kg. Turning to `CN(C)CCN(Cc1ccsc1)c1ccccn1`, the LD50 is 525 mg/kg. As for `c1ccc(-c2nnco2)cc1`, the LD50 was 440 mg/kg.

For the compound `O=C(CCCN1CCC(O)(c2ccc(Cl)c(C(F)(F)F)c2)CC1)c1ccc(F)cc1`, the LD50 is 195 mg/kg. `CC(C)C(=O)OCC(C)(C)C(O)C(C)C` (stereo not given): the 50% lethal dose (LD50) was 3200 mg/kg.

Turning to `CC(=O)Oc1c([N+](=O)[O-])cc([N+](=O)[O-])cc1C(C)(C)C`, the LD50 was 62 mg/kg. `CC1NC(=S)NC1=O` (stereo not given): the median lethal dose (LD50) is 1050 mg/kg. As for `CO[C@H]1[C@@H](O)C[C@H](O[C@H]2[C@@H](O)C[C@H](O[C@H]3[C@@H](O)C[C@H](O[C@H]4CC[C@@]5(C)[C@H](CC[C@@H]6[C@@H]5C[C@@H](O)[C@]5(C)[C@@H](C7=CC(=O)OC7)CC[C@]65O)C4)O[C@@H]3C)O[C@@H]2C)O[C@@H]1C`, the LD50 is 8.3 mg/kg. In the case of `CCCCCCCCCCCCCCCCOP(=O)([O-])OCC[N+](C)(C)C`, the LD50 is 246 mg/kg. On to `O=NN(CCO)CCO`, for which the median lethal dose (LD50) was 7500 mg/kg. In the case of `CCN(CCCOS(C)(=O)=O)CCCOS(C)(=O)=O`, the LD50 is 375 mg/kg. With `Oc1c(Cl)cc(Cl)c(Cl)c1Cc1c(O)c(Cl)cc(Cl)c1Cl`, the 50% lethal dose (LD50) is 59.2 mg/kg. With `Cc1ccccc1C1OCC(O)CO1` (mixture of isomers), the median lethal dose (LD50) was 3400 mg/kg.

In the case of `CCOC(=O)Cc1ccccc1`, the 50% lethal dose (LD50) was 3300 mg/kg. Regarding `CN1CCC(OC2c3ccccc3CCc3ccccc32)CC1`, the LD50 was 1500 mg/kg.
